Experimental data published in patent US9604988B2, “Agent for treating or inhibiting recurrence of acute myeloid leukemia” (RIKEN, priority 2012, dated 2017).
Where a name gives a salt, the structure may show the parent alone.

Columns and labels:
HCK = HCK (Homo sapiens, UniProt P08631); assay: HCK kinase inhibition; format: biochemical
FLT3-ITD = biological target: T1, FLT3-ITD (Homo sapiens, UniProt P36888, ITD); assay: FLT3-ITD kinase inhibition; format: biochemical
T1 sequence (P36888 27-993): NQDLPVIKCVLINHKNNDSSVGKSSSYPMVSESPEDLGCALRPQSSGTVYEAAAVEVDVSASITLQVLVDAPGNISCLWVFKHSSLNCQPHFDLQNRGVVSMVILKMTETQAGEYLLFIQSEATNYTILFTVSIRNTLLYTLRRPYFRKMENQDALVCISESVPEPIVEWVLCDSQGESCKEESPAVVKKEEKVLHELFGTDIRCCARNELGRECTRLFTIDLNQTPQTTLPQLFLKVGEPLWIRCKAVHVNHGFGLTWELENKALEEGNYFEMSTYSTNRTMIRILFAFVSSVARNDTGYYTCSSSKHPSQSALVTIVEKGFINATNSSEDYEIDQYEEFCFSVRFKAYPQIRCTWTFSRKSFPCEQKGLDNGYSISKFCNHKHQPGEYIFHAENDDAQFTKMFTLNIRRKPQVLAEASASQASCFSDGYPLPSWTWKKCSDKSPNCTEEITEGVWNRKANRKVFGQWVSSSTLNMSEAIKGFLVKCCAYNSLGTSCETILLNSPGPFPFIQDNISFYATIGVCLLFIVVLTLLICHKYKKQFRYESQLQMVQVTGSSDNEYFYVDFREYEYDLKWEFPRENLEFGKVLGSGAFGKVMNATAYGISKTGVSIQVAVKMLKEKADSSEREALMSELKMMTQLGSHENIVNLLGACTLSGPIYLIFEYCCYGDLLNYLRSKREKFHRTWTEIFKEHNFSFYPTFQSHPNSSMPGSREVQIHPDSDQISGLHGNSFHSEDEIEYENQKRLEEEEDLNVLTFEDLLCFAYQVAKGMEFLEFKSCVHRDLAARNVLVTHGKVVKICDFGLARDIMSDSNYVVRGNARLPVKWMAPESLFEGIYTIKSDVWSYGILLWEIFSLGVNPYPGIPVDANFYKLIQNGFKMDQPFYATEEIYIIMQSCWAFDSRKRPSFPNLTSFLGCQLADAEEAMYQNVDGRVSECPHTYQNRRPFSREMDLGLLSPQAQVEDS

Sequence of HCK (P08631 whole entry): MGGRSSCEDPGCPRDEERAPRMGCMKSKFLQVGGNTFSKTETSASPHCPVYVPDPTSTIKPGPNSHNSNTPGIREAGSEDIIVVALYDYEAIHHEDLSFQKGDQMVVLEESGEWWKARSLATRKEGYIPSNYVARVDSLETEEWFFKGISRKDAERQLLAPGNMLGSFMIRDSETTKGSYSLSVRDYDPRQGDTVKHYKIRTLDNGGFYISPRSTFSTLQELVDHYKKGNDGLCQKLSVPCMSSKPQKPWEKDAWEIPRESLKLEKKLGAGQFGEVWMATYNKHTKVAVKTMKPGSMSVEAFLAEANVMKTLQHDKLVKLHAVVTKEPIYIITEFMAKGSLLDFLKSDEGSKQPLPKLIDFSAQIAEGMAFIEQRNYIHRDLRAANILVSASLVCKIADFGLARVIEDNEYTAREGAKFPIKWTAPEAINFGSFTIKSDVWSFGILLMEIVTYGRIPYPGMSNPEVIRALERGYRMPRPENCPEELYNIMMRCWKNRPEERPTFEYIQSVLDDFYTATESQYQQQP

SMILES	IC50 (HCK) [nM]	IC50 (FLT3-ITD) [nM]
Nc1ncnc2c1c(-c1ccc(Oc3ccccc3)cc1)cn2[C@H]1CC[C@H](NCC(=O)O)CC1 [Example 3, 2-(((trans)-4-(4-Amino-5-(4-phenoxyphenyl)-7H-pyrrolo[2,3-d]pyrimidin-7-yl)cyclohexyl)amino)acetic acid.trihydrochloride]	4.2	24
Nc1ncnc2c1c(-c1ccc(Oc3ccccc3)cc1)cn2[C@H]1CC[C@@H](NCc2ccncc2)CC1 [Example 5, 5-(4-phenoxyphenyl)-7-((cis)-4-((pyridin-4-ylmethyl)amino)cyclohexyl)-7H-pyrrolo[2,3-d]pyrimidin-4-amine]	–	6.6
Nc1ncnc2c1c(-c1ccc(Oc3ccccc3)cc1)cn2[C@H]1CC[C@@H](NCC(=O)O)CC1 [Example 9, 2-(((cis)-4-(4-Amino-5-(4-phenoxyphenyl)-7H-pyrrolo[2,3-d]pyrimidin-7-yl)cyclohexyl)amino)acetic acid.trihydrochloride]	16	23
NC(=O)CN[C@H]1CC[C@@H](n2cc(-c3ccc(Oc4ccccc4)cc3)c3c(N)ncnc32)CC1 [Example 10, 2-(((cis)-4-(4-Amino-5-(4-phenoxyphenyl)-7H-pyrrolo[2,3-d]pyrimidin-7-yl)cyclohexyl)amino)acetamide]	–	23
NC(=O)CN[C@H]1CC[C@H](n2cc(-c3ccc(Oc4ccccc4)cc3)c3c(N)ncnc32)CC1 [Example 11, 2-(((trans)-4-(4-Amino-5-(4-phenoxyphenyl)-7H-pyrrolo[2,3-d]pyrimidin-7-yl)cyclohexyl)amino)acetamide]	–	23
COc1cc(-c2cn([C@H]3CC[C@@H](N4CCn5c(C)nnc5C4)CC3)c3ncnc(N)c23)ccc1NC(=O)c1cc2ccccc2n1C [Example 16, N-(4-(4-amino-7-((cis)-4-(3-methyl-5,6-dihydro[1,2,4]triazolo[4,3-a]pyrazin-7(8H)-yl)cyclohexyl)-7H-pyrrolo[2,3-d]pyrimidin-5-yl)-2-methoxyphenyl)-1-methyl-1H-indole-2-carboxamidamide]	4.9	–
Nc1ncnc2c1c(-c1ccc(Oc3ccccc3)cc1)cn2[C@H]1CC[C@H](NC(=O)c2cccnc2)CC1 [Example 19, N-((trans)-4-(4-amino-5-(4-phenoxyphenyl)-7H-pyrrolo[2,3-d]pyrimidin-7-yl)cyclohexyl)nicotinamide]	11.9	108
COc1cc(-c2cn([C@H]3CC[C@@H](N4CCN(C)CC4)CC3)c3ncnc(N)c23)ccc1NC(=O)c1cc2ccccc2n1C [Example 26, N-(4-(4-amino-7-((cis)-4-(4-methylpiperazin-1-yl)cyclohexyl)-7H-pyrrolo[2,3-d]pyrimidin-5-yl)-2-methoxyphenyl)-1-methyl-1H-indole-2-carboxamide]	7.2	1330
COc1cc(-c2cn([C@H]3CC[C@H](N4CCn5c(nnc5C(C)C)C4)CC3)c3ncnc(N)c23)ccc1NC(=O)c1cc2ccccc2n1C [Example 34, N-(4-(4-amino-7-((trans)-4-(3-isopropyl-5,6-dihydro[1,2,4]triazolo[4,3-a]pyrazin-7(8H)-yl)cyclohexyl)-7H-pyrrolo[2,3-d]pyrimidin-5-yl)-2-methoxyphenyl)-1-methyl-1H-indole-2-carboxamide]	7.7	–
COc1cc(-c2cn([C@H]3CC[C@H](N4CCn5c(cnc5C)C4)CC3)c3ncnc(N)c23)ccc1NC(=O)c1cc2ccccc2n1C [Example 36, N-(4-(4-amino-7-((trans)-4-(3-methyl-5,6-dihydroimidazolo[1,5-a]pyrazin-7(8H)-yl)cyclohexyl)-7H-pyrrolo[2,3-d]pyrimidin-5-yl)-2-methoxyphenyl)-1-methyl-1H-indole-2-carboxamide]	4	409
Nc1ncnc2c1c(-c1ccc(Oc3ccccc3)cc1)cn2[C@H]1CC[C@H](N[C@H]2CCNC2=O)CC1 [Example 54, (S)-3-(((trans)-4-(4-amino-5-(4-phenoxyphenyl)-7H-pyrrolo[2,3-d]pyrimidin-7-yl)cyclohexyl)amino)pyrrolidin-2-one]	–	25

More lines, in order of falling IC50 (HCK), values ahead:

IC50 (HCK) [nM]	IC50 (FLT3-ITD) [nM]	SMILES
14	–	CCc1nnc2n1CCN([C@H]1CC[C@H](n3cc(-c4ccc(NC(=O)c5cc6ccccc6n5C)c(OC)c4)c4c(N)ncnc43)CC1)C2 [Example 32, N-(4-(4-amino-7-((trans)-4-(3-ethyl-5,6-dihydro[1,2,4]triazolo[4,3-a]pyrazin-7(8H)-yl)cyclohexyl)-7H-pyrrolo[2,3-d]pyrimidin-5-yl)-2-methoxyphenyl)-1-methyl-1H-indole-2-carboxamide]
12	548	Nc1ncnc2c1c(-c1ccc(Oc3ccccc3)cc1)nn2[C@H]1CC[C@H](NC(=O)c2ccccn2)CC1 [Example 23, N-((trans)-4-(4-amino-3-(4-phenoxyphenyl)-1H-pyrazolo[3,4-d]pyrimidin-1-yl)cyclohexyl)picolinamide]
11	–	CCc1nnc2n1CCN([C@H]1CC[C@@H](n3cc(-c4ccc(NC(=O)c5cc6ccccc6n5C)c(OC)c4)c4c(N)ncnc43)CC1)C2 [Example 31, N-(4-(4-amino-7-((cis)-4-(3-ethyl-5,6-dihydro[1,2,4]triazolo[4,3-a]pyrazin-7(8H)-yl)cyclohexyl)-7H-pyrrolo[2,3-d]pyrimidin-5-yl)-2-methoxyphenyl)-1-methyl-1H-indole-2-carboxamide]
8	17	CC(C)(C)N1CCN([C@H]2CC[C@H](n3cc(-c4ccc(Oc5ccccc5)cc4)c4c(N)ncnc43)CC2)CC1 [Example 13, 7-((trans)-4-(4-(tert-Butyl)piperazin-1-yl)cyclohexyl)-5-(4-phenoxyphenyl)-7H-pyrrolo[2,3-d]pyrimidin-4-amine]
7.9	414	Nc1ncnc2c1c(-c1ccc(Oc3ccccc3)cc1)nn2[C@H]1CC[C@H](NC(=O)c2ccncc2)CC1 [Example 20, N-((trans)-4-(4-amino-3-(4-phenoxyphenyl)-1H-pyrazolo[3,4-d]pyrimidin-1-yl)cyclohexyl)isonicotinamide]
7.7	–	COc1cc(-c2cn([C@H]3CC[C@H](N4CCn5c(nnc5C(F)(F)F)C4)CC3)c3ncnc(N)c23)ccc1NC(=O)c1cc2ccccc2n1C [Example 30, N-(4-(4-amino-7-((trans)-4-(3-(trifluoromethyl)-5,6-dihydro[1,2,4]triazolo[4,3-a]pyrazin-7(8H)-yl)cyclohexyl)-7H-pyrrolo[2,3-d]pyrimidin-5-yl)-2-methoxyphenyl)-1-methyl-1H-indole-2-carboxamide]
7.7	–	COc1cc(-c2cn([C@H]3CC[C@@H](N4CCn5c(nnc5C(C)C)C4)CC3)c3ncnc(N)c23)ccc1NC(=O)c1cc2ccccc2n1C [Example 33, N-(4-(4-amino-7-((cis)-4-(3-isopropyl-5,6-dihydro[1,2,4]triazolo[4,3-a]pyrazin-7(8H)-yl)cyclohexyl)-7H-pyrrolo[2,3-d]pyrimidin-5-yl)-2-methoxyphenyl)-1-methyl-1H-indole-2-carboxamide]
4.55	428	Nc1ncnc2c1c(-c1ccc(Oc3ccccc3)cc1)cn2[C@H]1CC[C@H](NC(=O)c2ccccn2)CC1 [Example 18, N-((trans)-4-(4-amino-5-(4-phenoxyphenyl)-7H-pyrrolo[2,3-d]pyrimidin-7-yl)cyclohexyl)picolinamide]
4	44	Nc1ncnc2c1c(-c1ccc(Oc3ccccc3)cc1)cn2[C@H]1CC[C@@H](NC(=O)c2ccncc2)CC1 [Example 12, N-((cis)-4-(4-5-(4-Phenoxyphenyl)-7H-pyrrolo[2,3-d]pyrimidin-7-yl)cyclohexyl)isonicotinamide]
2.55	255	CN1CCN([C@H]2CC[C@H](n3cc(-c4ccc(NC(=O)c5cc6ccccc6n5C)cc4)c4c(N)ncnc43)CC2)CC1 [Example 17, N-(4-(4-amino-7-((trans)-4-(4-methylpiperazin-1-yl)cyclohexyl)-7H-pyrrolo[2,3-d]pyrimidin-5-yl)phenyl)-1-methyl-1H-indole-2-carboxamide]
1.6	1080	CN1CCN([C@H]2CC[C@H](n3nc(-c4ccc(NC(=O)c5cc6ccccc6n5C)cc4)c4c(N)ncnc43)CC2)CC1 [Example 28, N-(4-(4-amino-1-((trans)-4-(4-methylpiperazin-1-yl)cyclohexyl)-1H-pyrazolo[3,4-d]pyrimidin-3-yl)phenyl)-1-methyl-1H-indole-2-carboxamide]
0.77	2750	COc1cc(-c2nn([C@H]3CC[C@H](N4CCN(C)CC4)CC3)c3ncnc(N)c23)ccc1NC(=O)c1cc2ccccc2n1C [Example 14, N-(4-(4-amino-1-((trans)-4-(4-methylpiperazin-1-yl)cyclohexyl)-1H-pyrazolo[3,4-d]pyrimidin-3-yl)-2-methoxyphenyl)-1-methyl-1H-indole-2-carboxamide]
